Laboratory results: US10314823B2, “Substituted 1,2-dihydro-3H-pyrrolo[1,2-c]imidazol-3-one antibacterial compounds” (IDORSIA PHARMACEUTICALS LTD, priority 2015, dated 2019)
In brackets after ≈: the same amount, converted by molar mass.

Columns and labels:
Assay in all cases: Bacterial growth minimal inhibitory concentration (CLSI broth microdilution)
Format in all cases: cell-based
P. aeruginosa ATCC27853 = conditions: Pseudomonas aeruginosa, ATCC27853; quinolone-sensitive strain; cation-adjusted Mueller-Hinton Broth
Summary of the method: (§1)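 Compounds were serially diluted in cation-adjusted Mueller-Hinton broth, then inoculated with the test strain following the CLSI M7-A7 microdilution standard. The lowest inhibitory concentration is reported as MIC in mg/L.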

E. coli ATCC25922 = conditions: Escherichia coli, ATCC25922; quinolone-sensitive strain; cation-adjusted Mueller-Hinton Broth
Summary of the method: as §1

K. pneumoniae A-651 = conditions: Klebsiella pneumoniae, A651; multiply resistant strain (in particular quinolone-resistant); cation-adjusted Mueller-Hinton Broth
Summary of the method: as §1

Row | Structure (SMILES) | MIC (P. aeruginosa ATCC27853) | MIC (E. coli ATCC25922) | MIC (K. pneumoniae A-651)
1 | C[C@@](CCN1Cc2cc(C#CC#C[C@H]3C[C@@H]3[C@@H](O)CO)cn2C1=O)(C(=O)NO)S(C)(=O)=O [Example 56, (2R)-4-(6-(((1S,2S)-2-((R)-1,2-dihydroxyethyl)cyclopropyl)buta-1,3-diyn-1-yl)-3-oxo-1H-pyrrolo[1,2-c]imidazol-2(3H)-yl)-N-hydroxy-2-methyl-2-(methylsulfonyl)butanamide] | 0.5 µg/mL (≈ 1.08 µM) | 0.25 µg/mL (≈ 0.539 µM) | 1 µg/mL (≈ 2.16 µM)
2 | C[C@@](CCN1Cc2cc(C#CC#CC3CN(C4CC4)C3)cn2C1=O)(C(=O)NO)S(C)(=O)=O [Example 57, (2R)-4-(6-((1-cyclopropylazetidin-3-yl)buta-1,3-diyn-1-yl)-3-oxo-1H-pyrrolo[1,2-c]imidazol-2(3H)-yl)-N-hydroxy-2-methyl-2-(methylsulfonyl)butanamide] | 0.063 µg/mL (≈ 0.137 µM) | 0.125 µg/mL (≈ 0.273 µM) | 0.5 µg/mL (≈ 1.09 µM)
3 | C[C@@](CCN1Cc2cc(C#CC#CC3CN(CC(F)(F)F)C3)cn2C1=O)(C(=O)NO)S(C)(=O)=O [Example 58, (2R)—N-hydroxy-2-methyl-2-(methylsulfonyl)-4-(3-oxo-6-((1-(2,2,2-trifluoroethyl)azetidin-3-yl)buta-1,3-diyn-1-yl)-1H-pyrrolo[1,2-c]imidazol-2(3H)-yl)butanamide] | 0.25 µg/mL (≈ 0.5 µM) | 0.5 µg/mL (≈ 0.999 µM) | 4 µg/mL (≈ 7.99 µM)
4 | [2H]CN1CC(C#CC#Cc2cc3n(c2)C(=O)N(CC[C@](C)(C(=O)NO)S(C)(=O)=O)C3)C1 [Example 60, (2R)—N-hydroxy-2-methyl-4-(6-((1-(methyl-d)azetidin-3-yl)buta-1,3-diyn-1-yl)-3-oxo-1H-pyrrolo[1,2-c]imidazol-2(3H)-yl)-2-(methylsulfonyl)butanamide] | 0.5 µg/mL (≈ 1.15 µM) | 0.5 µg/mL (≈ 1.15 µM) | 0.5 µg/mL (≈ 1.15 µM)
5 | C[C@@](CCN1Cc2cc(C#CC#CC3CN(CCF)C3)cn2C1=O)(C(=O)NO)S(C)(=O)=O [Example 61, (2R)-4-(6-((1-(2-fluoroethyl)azetidin-3-yl)buta-1,3-diyn-1-yl)-3-oxo-1H-pyrrolo[1,2-c]imidazol-2(3H)-yl)-N-hydroxy-2-methyl-2-(methylsulfonyl)butanamide] | 0.5 µg/mL (≈ 1.08 µM) | 0.063 µg/mL (≈ 0.136 µM) | 0.5 µg/mL (≈ 1.08 µM)
6 | C[C@@](CCN1Cc2cc(C#CC#CC3CN(C4CCC4)C3)cn2C1=O)(C(=O)NO)S(C)(=O)=O [Example 62, (2R)-4-(6-((1-cyclobutylazetidin-3-yl)buta-1,3-diyn-1-yl)-3-oxo-1H-pyrrolo[1,2-c]imidazol-2(3H)-yl)-N-hydroxy-2-methyl-2-(methylsulfonyl)butanamide] | 1 µg/mL (≈ 2.12 µM) | 0.125 µg/mL (≈ 0.265 µM) | 0.125 µg/mL (≈ 0.265 µM)
7 | C[C@@](CCN1Cc2cc(C#CC#CC3CN(C4CS(=O)(=O)C4)C3)cn2C1=O)(C(=O)NO)S(C)(=O)=O [Example 63, (2R)-4-(6-((1-(1,1-dioxidothietan-3-yl)azetidin-3-yl)buta-1,3-diyn-1-yl)-3-oxo-1H-pyrrolo[1,2-c]imidazol-2(3H)-yl)-N-hydroxy-2-methyl-2-(methylsulfonyl)butanamide] | 4 µg/mL (≈ 7.65 µM) | 1 µg/mL (≈ 1.91 µM) | 2 µg/mL (≈ 3.83 µM)
8 | C[C@@](CCN1Cc2cc(C#CC#CC3CN(CCCO)C3)cn2C1=O)(C(=O)NO)S(C)(=O)=O [Example 64, (2R)—N-hydroxy-4-(6-((1-(3-hydroxypropyl)azetidin-3-yl)buta-1,3-diyn-1-yl)-3-oxo-1H-pyrrolo[1,2-c]imidazol-2(3H)-yl)-2-methyl-2-(methylsulfonyl)butanamide] | 0.5 µg/mL (≈ 1.05 µM) | 0.25 µg/mL (≈ 0.525 µM) | 1 µg/mL (≈ 2.1 µM)
9 | CN1CC(C)(C#CC#Cc2cc3n(c2)C(=O)N(CC[C@](C)(C(=O)NO)S(C)(=O)=O)C3)C1 [Example 65, (2R)-4-(6-((1,3-dimethylazetidin-3-yl)buta-1,3-diyn-1-yl)-3-oxo-1H-pyrrolo[1,2-c]imidazol-2(3H)-yl)-N-hydroxy-2-methyl-2-(methylsulfonyl)butanamide] | 1 µg/mL (≈ 2.24 µM) | 1 µg/mL (≈ 2.24 µM) | 1 µg/mL (≈ 2.24 µM)
10 | C[C@@](CCN1Cc2cc(C#CC#CC3(F)CN(CCO)C3)cn2C1=O)(C(=O)NO)S(C)(=O)=O [Example 66, (2R)-4-(6-((3-fluoro-1-(2-hydroxyethyl)azetidin-3-yl)buta-1,3-diyn-1-yl)-3-oxo-1H-pyrrolo[1,2-c]imidazol-2(3H)-yl)-N-hydroxy-2-methyl-2-(methylsulfonyl)butanamide] | 2 µg/mL (≈ 4.16 µM) | 0.5 µg/mL (≈ 1.04 µM) | 1 µg/mL (≈ 2.08 µM)
11 | C[C@@](CCN1Cc2cc(C#CC#CC3CN(CC(CO)CO)C3)cn2C1=O)(C(=O)NO)S(C)(=O)=O [Example 67, (2R)—N-hydroxy-4-(6-((1-(3-hydroxy-2-(hydroxymethyl)propyl)azetidin-3-yl)buta-1,3-diyn-1-yl)-3-oxo-1H-pyrrolo[1,2-c]imidazol-2(3H)-yl)-2-methyl-2-(methylsulfonyl)butanamide] | 1 µg/mL (≈ 1.97 µM) | 2 µg/mL (≈ 3.95 µM) | 2 µg/mL (≈ 3.95 µM)
12 | C[C@@](CCN1Cc2cc(C#CC#CC3CN(CC(F)F)C3)cn2C1=O)(C(=O)NO)S(C)(=O)=O [Example 68, (2R)-4-(6-((1-(2,2-difluoroethyl)azetidin-3-yl)buta-1,3-diyn-1-yl)-3-oxo-1H-pyrrolo[1,2-c]imidazol-2(3H)-yl)-N-hydroxy-2-methyl-2-(methylsulfonyl)butanamide] | 1 µg/mL (≈ 2.07 µM) | 0.063 µg/mL (≈ 0.131 µM) | 0.25 µg/mL (≈ 0.518 µM)
13 | C[C@@](CCN1Cc2cc(C#CC#CC3CN(C4CC(O)C4)C3)cn2C1=O)(C(=O)NO)S(C)(=O)=O (stereo partly drawn) [Example 69, (2R)—N-hydroxy-4-(6-((1-(3-hydroxycyclobutyl)azetidin-3-yl)buta-1,3-diyn-1-yl)-3-oxo-1H-pyrrolo[1,2-c]imidazol-2(3H)-yl)-2-methyl-2-(methylsulfonyl)butanamide] | 0.5 µg/mL (≈ 1.02 µM) | 0.25 µg/mL (≈ 0.512 µM) | 0.5 µg/mL (≈ 1.02 µM)
14 | C[C@@](CCN1Cc2cc(C#CC#CC3CN(C4CCCCC4)C3)cn2C1=O)(C(=O)NO)S(C)(=O)=O [Example 70, (2R)-4-(6-((1-cyclohexylazetidin-3-yl)buta-1,3-diyn-1-yl)-3-oxo-1H-pyrrolo[1,2-c]imidazol-2(3H)-yl)-N-hydroxy-2-methyl-2-(methylsulfonyl)butanamide] | 0.5 µg/mL (≈ 0.999 µM) | 0.125 µg/mL (≈ 0.25 µM) | 0.25 µg/mL (≈ 0.499 µM)
15 | C[C@@](CCN1Cc2cc(C#CC#CC3CN(C4CCCC4)C3)cn2C1=O)(C(=O)NO)S(C)(=O)=O [Example 73, (2R)-4-(6-((1-cyclopentylazetidin-3-yl)buta-1,3-diyn-1-yl)-3-oxo-1H-pyrrolo[1,2-c]imidazol-2(3H)-yl)-N-hydroxy-2-methyl-2-(methylsulfonyl)butanamide] | 1 µg/mL (≈ 2.06 µM) | 0.5 µg/mL (≈ 1.03 µM) | 0.25 µg/mL (≈ 0.514 µM)
16 | C[C@@](CCN1Cc2cc(C#CC#CC3CN(C4CCOCC4)C3)cn2C1=O)(C(=O)NO)S(C)(=O)=O [Example 74, (2R)—N-hydroxy-2-methyl-2-(methylsulfonyl)-4-(3-oxo-6-((1-(tetrahydro-2H-pyran-4-yl)azetidin-3-yl)buta-1,3-diyn-1-yl)-1H-pyrrolo[1,2-c]imidazol-2(3H)-yl)butanamide] | 1 µg/mL (≈ 1.99 µM) | 0.25 µg/mL (≈ 0.497 µM) | 0.25 µg/mL (≈ 0.497 µM)
17 | C[C@@](CCN1Cc2cc(C#CC#CC3CN(C4CSC4)C3)cn2C1=O)(C(=O)NO)S(C)(=O)=O [Example 75, (2R)—N-hydroxy-2-methyl-2-(methylsulfonyl)-4-(3-oxo-6-((1-(thietan-3-yl)azetidin-3-yl)buta-1,3-diyn-1-yl)-1H-pyrrolo[1,2-c]imidazol-2(3H)-yl)butanamide] | 2 µg/mL (≈ 4.08 µM) | 0.063 µg/mL (≈ 0.128 µM) | 0.125 µg/mL (≈ 0.255 µM)
